# The source made the active and inactive calls. Cut-off read from the data, not from the text of the source, for most assays here: actives have a measured Kd and inactives only a lower limit.
# How the values were obtained:
# [1] = biological target: T1, Serine/threonine-protein kinase LATS1 (Homo sapiens, UniProt O95835)
# T1 sequence (O95835 whole entry): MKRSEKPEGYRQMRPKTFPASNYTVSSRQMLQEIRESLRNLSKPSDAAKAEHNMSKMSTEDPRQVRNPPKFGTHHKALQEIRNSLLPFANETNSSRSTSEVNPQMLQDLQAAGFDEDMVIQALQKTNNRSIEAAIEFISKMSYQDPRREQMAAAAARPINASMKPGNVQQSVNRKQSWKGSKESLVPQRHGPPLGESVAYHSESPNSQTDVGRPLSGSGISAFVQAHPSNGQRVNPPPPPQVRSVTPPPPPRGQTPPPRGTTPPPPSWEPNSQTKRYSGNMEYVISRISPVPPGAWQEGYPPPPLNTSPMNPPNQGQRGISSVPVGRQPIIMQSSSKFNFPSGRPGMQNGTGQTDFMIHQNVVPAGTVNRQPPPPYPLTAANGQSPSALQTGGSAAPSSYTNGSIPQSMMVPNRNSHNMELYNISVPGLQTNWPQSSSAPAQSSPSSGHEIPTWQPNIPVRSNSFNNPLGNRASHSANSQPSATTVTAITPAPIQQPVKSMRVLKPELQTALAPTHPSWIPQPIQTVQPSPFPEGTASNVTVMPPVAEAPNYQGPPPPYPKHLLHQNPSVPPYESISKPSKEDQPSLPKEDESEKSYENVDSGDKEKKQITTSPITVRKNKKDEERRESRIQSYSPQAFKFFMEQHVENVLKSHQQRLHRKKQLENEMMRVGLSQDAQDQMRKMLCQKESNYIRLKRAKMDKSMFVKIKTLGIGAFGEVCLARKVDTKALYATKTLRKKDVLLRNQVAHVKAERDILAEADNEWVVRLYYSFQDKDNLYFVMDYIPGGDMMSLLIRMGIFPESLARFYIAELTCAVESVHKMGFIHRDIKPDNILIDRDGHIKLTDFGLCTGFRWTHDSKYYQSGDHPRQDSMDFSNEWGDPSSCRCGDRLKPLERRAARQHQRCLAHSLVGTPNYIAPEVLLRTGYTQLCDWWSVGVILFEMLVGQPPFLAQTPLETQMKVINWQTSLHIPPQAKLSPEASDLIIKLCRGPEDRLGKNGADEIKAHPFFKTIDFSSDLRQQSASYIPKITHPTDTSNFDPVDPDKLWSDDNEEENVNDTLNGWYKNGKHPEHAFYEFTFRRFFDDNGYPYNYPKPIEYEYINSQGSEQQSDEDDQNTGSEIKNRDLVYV
# [2] = biological target: Mitogen-activated protein kinase kinase kinase 4 (Homo sapiens, UniProt Q9Y6R4)
# [3] = biological target: T2, Dual specificity mitogen-activated protein kinase kinase 3 (Homo sapiens, UniProt P46734)
# T2 sequence (P46734 whole entry): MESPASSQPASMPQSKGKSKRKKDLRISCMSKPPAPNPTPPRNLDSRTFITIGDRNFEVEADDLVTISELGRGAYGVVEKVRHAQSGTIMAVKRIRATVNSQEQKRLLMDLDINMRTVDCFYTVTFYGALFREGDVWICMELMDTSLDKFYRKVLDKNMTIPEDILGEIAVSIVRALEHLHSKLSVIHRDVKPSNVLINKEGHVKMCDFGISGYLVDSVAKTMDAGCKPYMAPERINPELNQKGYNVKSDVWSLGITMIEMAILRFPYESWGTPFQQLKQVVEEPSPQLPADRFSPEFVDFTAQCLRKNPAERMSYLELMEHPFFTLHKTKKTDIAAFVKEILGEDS
# [4] = biological target: Structural maintenance of chromosomes protein 2 (Homo sapiens, UniProt O95347)
# Sequence of Structural maintenance of chromosomes protein 2 (O95347 whole entry): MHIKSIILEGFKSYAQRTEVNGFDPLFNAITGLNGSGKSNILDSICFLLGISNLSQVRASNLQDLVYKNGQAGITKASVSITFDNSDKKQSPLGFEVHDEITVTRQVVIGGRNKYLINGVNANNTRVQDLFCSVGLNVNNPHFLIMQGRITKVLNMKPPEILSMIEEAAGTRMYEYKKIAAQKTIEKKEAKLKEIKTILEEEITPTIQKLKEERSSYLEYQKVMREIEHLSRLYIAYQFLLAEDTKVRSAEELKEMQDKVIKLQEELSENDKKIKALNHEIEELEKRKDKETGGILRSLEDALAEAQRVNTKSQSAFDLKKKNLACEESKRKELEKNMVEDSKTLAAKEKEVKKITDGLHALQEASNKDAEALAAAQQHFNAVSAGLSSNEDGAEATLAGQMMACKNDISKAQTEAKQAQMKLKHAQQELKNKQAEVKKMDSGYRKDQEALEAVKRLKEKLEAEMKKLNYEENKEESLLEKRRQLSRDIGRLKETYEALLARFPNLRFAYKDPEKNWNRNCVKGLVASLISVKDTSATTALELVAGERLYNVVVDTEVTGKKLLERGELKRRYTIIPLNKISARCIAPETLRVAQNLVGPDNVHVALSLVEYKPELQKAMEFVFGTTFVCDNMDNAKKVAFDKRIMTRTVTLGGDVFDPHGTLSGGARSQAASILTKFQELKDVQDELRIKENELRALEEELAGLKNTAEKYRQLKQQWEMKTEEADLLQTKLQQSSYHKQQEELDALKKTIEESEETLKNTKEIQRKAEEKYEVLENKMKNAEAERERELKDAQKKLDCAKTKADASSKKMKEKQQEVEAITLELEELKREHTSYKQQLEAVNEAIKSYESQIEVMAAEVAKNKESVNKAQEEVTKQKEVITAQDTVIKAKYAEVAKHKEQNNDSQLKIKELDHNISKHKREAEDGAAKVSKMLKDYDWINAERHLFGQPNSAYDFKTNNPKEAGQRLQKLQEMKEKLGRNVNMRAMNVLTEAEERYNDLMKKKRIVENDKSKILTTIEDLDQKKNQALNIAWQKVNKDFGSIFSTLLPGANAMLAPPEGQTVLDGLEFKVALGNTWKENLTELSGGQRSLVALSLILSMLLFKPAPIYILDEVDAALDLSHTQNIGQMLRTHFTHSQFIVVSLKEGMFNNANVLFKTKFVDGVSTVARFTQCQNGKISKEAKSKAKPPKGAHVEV
# [5] = biological target: 5'-AMP-activated protein kinase catalytic subunit alpha-1 (Homo sapiens, UniProt Q13131)
# [6] = biological target: Mitogen-activated protein kinase kinase kinase kinase 4 (Homo sapiens, UniProt O95819)
# Sequence of Mitogen-activated protein kinase kinase kinase kinase 4 (O95819 whole entry): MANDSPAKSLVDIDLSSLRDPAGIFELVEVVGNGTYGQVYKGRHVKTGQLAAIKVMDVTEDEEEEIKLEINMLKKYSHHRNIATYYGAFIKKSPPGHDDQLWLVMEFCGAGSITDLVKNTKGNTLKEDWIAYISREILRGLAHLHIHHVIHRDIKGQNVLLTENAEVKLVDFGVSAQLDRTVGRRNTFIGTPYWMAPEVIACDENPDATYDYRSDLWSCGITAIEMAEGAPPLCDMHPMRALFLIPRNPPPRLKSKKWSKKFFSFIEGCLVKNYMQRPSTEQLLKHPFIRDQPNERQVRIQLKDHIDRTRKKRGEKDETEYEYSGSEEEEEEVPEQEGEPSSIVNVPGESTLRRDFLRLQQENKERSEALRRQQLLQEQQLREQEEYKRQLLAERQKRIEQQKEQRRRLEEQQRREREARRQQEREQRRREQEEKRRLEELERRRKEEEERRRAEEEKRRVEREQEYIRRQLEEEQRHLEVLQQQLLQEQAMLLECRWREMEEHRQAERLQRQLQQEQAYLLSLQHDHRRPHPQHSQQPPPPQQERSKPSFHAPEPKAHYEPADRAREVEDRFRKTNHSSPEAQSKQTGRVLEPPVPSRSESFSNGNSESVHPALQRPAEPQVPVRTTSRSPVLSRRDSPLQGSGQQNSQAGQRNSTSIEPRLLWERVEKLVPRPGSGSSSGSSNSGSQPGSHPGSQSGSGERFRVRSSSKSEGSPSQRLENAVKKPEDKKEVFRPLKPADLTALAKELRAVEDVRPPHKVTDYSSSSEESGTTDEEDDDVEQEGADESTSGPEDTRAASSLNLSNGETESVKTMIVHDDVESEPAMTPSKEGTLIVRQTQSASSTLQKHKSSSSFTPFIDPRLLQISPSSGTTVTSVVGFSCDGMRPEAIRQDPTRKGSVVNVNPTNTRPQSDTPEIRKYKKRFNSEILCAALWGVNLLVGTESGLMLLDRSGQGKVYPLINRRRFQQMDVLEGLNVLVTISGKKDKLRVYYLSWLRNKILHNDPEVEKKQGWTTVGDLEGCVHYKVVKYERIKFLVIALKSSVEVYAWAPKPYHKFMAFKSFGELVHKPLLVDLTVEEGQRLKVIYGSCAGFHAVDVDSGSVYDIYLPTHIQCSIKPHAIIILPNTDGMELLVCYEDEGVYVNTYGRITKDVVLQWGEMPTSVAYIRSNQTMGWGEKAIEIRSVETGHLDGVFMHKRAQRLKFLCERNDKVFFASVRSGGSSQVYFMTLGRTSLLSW
# [7] = biological target: Dual specificity mitogen-activated protein kinase kinase 2 (Homo sapiens, UniProt P36507)
# [8] = biological target: T3, Mitogen-activated protein kinase kinase kinase 3 (Homo sapiens, UniProt Q99759)
# T3 sequence (Q99759 whole entry): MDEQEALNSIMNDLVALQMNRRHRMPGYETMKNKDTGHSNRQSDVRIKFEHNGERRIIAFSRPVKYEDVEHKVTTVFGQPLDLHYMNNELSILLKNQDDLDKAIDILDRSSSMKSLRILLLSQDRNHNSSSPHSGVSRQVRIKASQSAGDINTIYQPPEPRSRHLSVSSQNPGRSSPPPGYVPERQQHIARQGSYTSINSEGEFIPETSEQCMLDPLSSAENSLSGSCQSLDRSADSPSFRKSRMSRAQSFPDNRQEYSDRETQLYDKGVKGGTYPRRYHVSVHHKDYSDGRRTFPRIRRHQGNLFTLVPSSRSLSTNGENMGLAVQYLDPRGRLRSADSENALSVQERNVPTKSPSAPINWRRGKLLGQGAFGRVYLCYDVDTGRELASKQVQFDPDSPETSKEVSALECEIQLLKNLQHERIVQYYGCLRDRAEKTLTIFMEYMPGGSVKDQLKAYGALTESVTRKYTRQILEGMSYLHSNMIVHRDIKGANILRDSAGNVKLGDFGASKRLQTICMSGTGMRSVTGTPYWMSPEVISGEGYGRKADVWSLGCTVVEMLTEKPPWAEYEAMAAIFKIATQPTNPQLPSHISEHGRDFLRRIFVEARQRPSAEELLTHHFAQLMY
# [9] = biological target: Mitogen-activated protein kinase kinase kinase 1 (Homo sapiens, UniProt Q13233)
# Sequence of Mitogen-activated protein kinase kinase kinase 1 (Q13233 whole entry): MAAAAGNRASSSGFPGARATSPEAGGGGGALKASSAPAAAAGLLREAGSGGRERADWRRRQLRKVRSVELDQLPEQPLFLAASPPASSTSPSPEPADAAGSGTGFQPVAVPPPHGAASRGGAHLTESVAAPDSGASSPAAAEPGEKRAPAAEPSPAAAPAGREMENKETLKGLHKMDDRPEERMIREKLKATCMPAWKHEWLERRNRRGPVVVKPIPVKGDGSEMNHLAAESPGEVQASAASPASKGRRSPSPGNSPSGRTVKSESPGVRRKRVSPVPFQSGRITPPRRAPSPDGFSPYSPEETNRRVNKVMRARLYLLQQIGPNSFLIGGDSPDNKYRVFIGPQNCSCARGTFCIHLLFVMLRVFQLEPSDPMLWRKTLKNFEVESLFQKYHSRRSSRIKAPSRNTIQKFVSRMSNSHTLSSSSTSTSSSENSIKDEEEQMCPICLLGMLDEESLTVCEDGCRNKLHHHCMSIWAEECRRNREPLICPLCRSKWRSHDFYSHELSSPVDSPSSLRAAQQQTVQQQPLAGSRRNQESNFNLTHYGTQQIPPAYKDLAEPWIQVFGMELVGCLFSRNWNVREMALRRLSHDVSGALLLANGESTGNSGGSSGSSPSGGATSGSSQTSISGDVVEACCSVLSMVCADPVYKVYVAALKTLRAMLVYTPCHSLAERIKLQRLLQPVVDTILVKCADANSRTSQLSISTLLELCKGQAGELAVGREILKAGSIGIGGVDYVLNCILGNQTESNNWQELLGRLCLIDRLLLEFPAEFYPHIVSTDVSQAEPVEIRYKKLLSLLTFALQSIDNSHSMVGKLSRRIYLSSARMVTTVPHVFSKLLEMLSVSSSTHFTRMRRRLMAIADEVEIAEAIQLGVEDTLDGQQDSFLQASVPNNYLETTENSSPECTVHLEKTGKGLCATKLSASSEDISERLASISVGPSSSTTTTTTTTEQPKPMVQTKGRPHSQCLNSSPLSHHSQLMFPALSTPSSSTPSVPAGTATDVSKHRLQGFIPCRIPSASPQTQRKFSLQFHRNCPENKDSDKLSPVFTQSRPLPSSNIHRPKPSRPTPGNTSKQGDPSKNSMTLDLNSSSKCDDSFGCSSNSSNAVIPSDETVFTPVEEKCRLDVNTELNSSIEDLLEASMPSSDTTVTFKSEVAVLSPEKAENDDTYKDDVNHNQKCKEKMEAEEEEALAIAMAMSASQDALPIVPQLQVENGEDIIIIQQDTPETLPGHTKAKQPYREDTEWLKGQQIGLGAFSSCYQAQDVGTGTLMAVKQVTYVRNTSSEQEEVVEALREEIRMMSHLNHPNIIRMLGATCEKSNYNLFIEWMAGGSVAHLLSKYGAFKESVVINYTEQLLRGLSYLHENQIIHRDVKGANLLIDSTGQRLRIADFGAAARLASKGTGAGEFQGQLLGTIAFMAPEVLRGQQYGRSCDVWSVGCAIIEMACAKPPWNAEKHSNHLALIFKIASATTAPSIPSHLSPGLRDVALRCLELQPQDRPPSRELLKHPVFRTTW
# [10] = biological target: Serine/threonine-protein kinase MRCK beta (Homo sapiens, UniProt Q9Y5S2)
# [11] = biological target: Serine/threonine-protein kinase 10 (Homo sapiens, UniProt O94804)
# Sequence of Serine/threonine-protein kinase 10 (O94804 whole entry): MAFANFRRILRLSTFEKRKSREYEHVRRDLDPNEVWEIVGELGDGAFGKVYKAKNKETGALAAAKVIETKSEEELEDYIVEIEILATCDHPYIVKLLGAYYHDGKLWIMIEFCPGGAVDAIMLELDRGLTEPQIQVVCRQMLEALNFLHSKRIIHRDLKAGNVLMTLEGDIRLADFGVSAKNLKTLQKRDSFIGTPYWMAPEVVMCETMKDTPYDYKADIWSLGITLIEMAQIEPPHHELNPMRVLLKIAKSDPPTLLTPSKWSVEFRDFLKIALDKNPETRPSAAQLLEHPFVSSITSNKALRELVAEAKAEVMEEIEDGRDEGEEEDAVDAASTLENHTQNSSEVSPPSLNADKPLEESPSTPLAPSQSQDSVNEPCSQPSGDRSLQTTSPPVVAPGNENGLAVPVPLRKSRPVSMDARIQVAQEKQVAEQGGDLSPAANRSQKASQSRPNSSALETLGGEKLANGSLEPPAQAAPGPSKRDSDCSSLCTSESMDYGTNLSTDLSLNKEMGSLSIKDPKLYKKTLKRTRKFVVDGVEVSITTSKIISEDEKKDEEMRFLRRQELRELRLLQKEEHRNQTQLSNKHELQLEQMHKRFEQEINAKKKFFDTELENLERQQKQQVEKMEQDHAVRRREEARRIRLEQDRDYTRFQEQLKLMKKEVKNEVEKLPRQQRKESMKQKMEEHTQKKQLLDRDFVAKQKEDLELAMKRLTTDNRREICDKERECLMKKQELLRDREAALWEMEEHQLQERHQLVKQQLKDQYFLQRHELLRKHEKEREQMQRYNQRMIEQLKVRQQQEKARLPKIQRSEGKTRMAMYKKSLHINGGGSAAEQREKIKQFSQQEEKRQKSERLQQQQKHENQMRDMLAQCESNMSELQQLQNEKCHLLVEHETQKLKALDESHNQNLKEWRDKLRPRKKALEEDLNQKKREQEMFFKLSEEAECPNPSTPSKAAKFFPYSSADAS
# [12] = biological target: Bone morphogenetic protein receptor type-1B (Homo sapiens, UniProt O00238)
# Pyridoxal kinase = biological target: T4, Pyridoxal kinase (Homo sapiens, UniProt O00764)
# T4 sequence (O00764 whole entry): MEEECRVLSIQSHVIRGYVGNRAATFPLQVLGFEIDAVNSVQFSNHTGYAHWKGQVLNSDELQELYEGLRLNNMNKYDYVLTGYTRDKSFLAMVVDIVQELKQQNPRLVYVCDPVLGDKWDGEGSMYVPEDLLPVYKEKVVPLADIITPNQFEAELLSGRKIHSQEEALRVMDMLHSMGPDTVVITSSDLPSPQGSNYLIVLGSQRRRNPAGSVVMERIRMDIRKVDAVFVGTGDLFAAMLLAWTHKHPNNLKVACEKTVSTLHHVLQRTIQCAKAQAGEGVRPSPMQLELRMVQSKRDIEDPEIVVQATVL
# Note: in the data inactive means no Kd found up to 30 µM.
Kd [1],Kd [2],Kd [4],Kd [5],Kd [6],Kd [7],Kd [8],Kd [9],Kd [10],Kd [11],Kd [12],Kd (Pyridoxal kinase),SMILES,Kd [3]
> 30 µM (inactive),> 30 µM (inactive),> 30 µM (inactive),> 30 µM (inactive),> 30 µM (inactive),> 30 µM (inactive),> 30 µM (inactive),> 30 µM (inactive),> 30 µM (inactive),> 30 µM (inactive),> 30 µM (inactive),> 30 µM (inactive),NC(=O)c1ccc(N(C(N)=O)c2c(F)cccc2F)nc1-c1ccc(F)cc1F [VX-702],> 30 µM (inactive)
> 30 µM (inactive),> 30 µM (inactive),> 30 µM (inactive),> 30 µM (inactive),> 30 µM (inactive),> 30 µM (inactive),> 30 µM (inactive),> 30 µM (inactive),> 30 µM (inactive),0.728 µM (active),> 30 µM (inactive),> 30 µM (inactive),Cc1cc(Nc2nc(N[C@@H](C)c3ncc(F)cn3)ncc2Cl)n[nH]1 [AZD-1480],> 30 µM (inactive)
> 30 µM (inactive),> 30 µM (inactive),> 30 µM (inactive),> 30 µM (inactive),> 30 µM (inactive),> 30 µM (inactive),> 30 µM (inactive),> 30 µM (inactive),> 30 µM (inactive),2.63 µM (active),> 30 µM (inactive),> 30 µM (inactive),COc1cc2ncnc(Nc3ccc(O)cc3)c2cc1OC [WHI-P131],> 30 µM (inactive)
> 30 µM (inactive),> 30 µM (inactive),> 30 µM (inactive),> 30 µM (inactive),> 30 µM (inactive),> 30 µM (inactive),> 30 µM (inactive),> 30 µM (inactive),> 30 µM (inactive),> 30 µM (inactive),> 30 µM (inactive),> 30 µM (inactive),CNC(=O)c1cc(COc2nnc(Nc3ccc(Cl)cc3)c3ccoc23)ccn1 [TELATINIB],> 30 µM (inactive)
> 30 µM (inactive),> 30 µM (inactive),> 30 µM (inactive),> 30 µM (inactive),> 30 µM (inactive),> 30 µM (inactive),0.546 µM (active),> 30 µM (inactive),> 30 µM (inactive),1.28 µM (active),> 30 µM (inactive),> 30 µM (inactive),COc1cccc(Nc2ncnn3ccc(CN4CC[C@@H](N)[C@H](O)C4)c23)c1 [BMS-690514],> 30 µM (inactive)
> 30 µM (inactive),> 30 µM (inactive),> 30 µM (inactive),> 30 µM (inactive),> 30 µM (inactive),> 30 µM (inactive),> 30 µM (inactive),> 30 µM (inactive),0.116 µM (active),0.071 µM (active),> 30 µM (inactive),> 30 µM (inactive),CC[C@@](C)(Nc1ccnc(-c2c[nH]c3ncccc23)n1)C(=O)NCC(F)(F)F [DECERNOTINIB],

# The remaining lines, values behind:
SMILES,Kd [1],Kd [2],Kd [4],Kd [5],Kd [6],Kd [7],Kd [8],Kd [9],Kd [10],Kd [11],Kd [12],Kd (Pyridoxal kinase),Kd [3]
Cc1c(NC(=O)OC[C@@H]2COCCN2)cn2ncnc(Nc3ccc4c(cnn4Cc4cccc(F)c4)c3)c12 [AC-480],> 30 µM (inactive),> 30 µM (inactive),> 30 µM (inactive),> 30 µM (inactive),> 30 µM (inactive),> 30 µM (inactive),> 30 µM (inactive),> 30 µM (inactive),> 30 µM (inactive),> 30 µM (inactive),> 30 µM (inactive),> 30 µM (inactive),> 30 µM (inactive)
Cn1cc(-c2[nH]c3cc(NC(=O)[C@H](N)C4CCCCC4)cc4c3c2C=NNC4=O)cn1,0.363 µM (active),> 30 µM (inactive),> 30 µM (inactive),1.32 µM (active),> 30 µM (inactive),> 30 µM (inactive),> 30 µM (inactive),,> 30 µM (inactive),> 30 µM (inactive),2.01 µM (active),> 30 µM (inactive),> 30 µM (inactive)
NC[C@@](O)(c1ccc(Cl)cc1)c1ccc(-c2cn[nH]c2)cc1 [AT-13148],0.027 µM (active),> 30 µM (inactive),> 30 µM (inactive),> 30 µM (inactive),> 30 µM (inactive),> 30 µM (inactive),> 30 µM (inactive),> 30 µM (inactive),> 30 µM (inactive),> 30 µM (inactive),> 30 µM (inactive),> 30 µM (inactive),> 30 µM (inactive)
COc1cc(F)c(F)c(Nc2ccc(I)cc2F)c1NS(=O)(=O)C1(C[C@H](O)CO)CC1 [REFAMETINIB],> 30 µM (inactive),> 30 µM (inactive),> 30 µM (inactive),> 30 µM (inactive),> 30 µM (inactive),0.176 µM (active),> 30 µM (inactive),> 30 µM (inactive),> 30 µM (inactive),> 30 µM (inactive),> 30 µM (inactive),> 30 µM (inactive),> 30 µM (inactive)
CCc1nc(C(N)=O)c(Nc2ccc(N3CCC(N4CCN(C)CC4)CC3)c(OC)c2)nc1NC1CCOCC1 [GILTERITINIB],0.221 µM (active),> 30 µM (inactive),> 30 µM (inactive),> 30 µM (inactive),0.202 µM (active),0.502 µM (active),> 30 µM (inactive),> 30 µM (inactive),> 30 µM (inactive),0.149 µM (active),,> 30 µM (inactive),> 30 µM (inactive)

# Source: ChEMBL document CHEMBL3991601, “The target landscape of clinical kinase drugs” (Science, 2017)
